Test results as given in patent publication US9975853B2, “Tetrahydroisoquinolinone derivatives and their use in the inhibition of the HSP70 protein” (Julius-Maximilians-Universitaet Wuerzburg, priority 2014, dated 2018).
Entries after “also recorded” stand apart in the source; their conditions may differ.

How the values were obtained:
HSP72 = biological target: T1, HSP72 (Homo sapiens, UniProt P0DMV8); experiment: Western blot analysis of HSP72 expression in INA-6 cells; type: cell-based; details: INA-6, 0.6 μM, with Z-VAD-FMK 50 μM
T1 construct: endogenous in cells; host or cells: INA-6 multiple myeloma cells
Protocol: (§1) Western Blot Analysis. Protein expression levels were determined with Western blotting procedures (M. Chatterjee, et al., Blood 2002, 100, 3311-3318). Following separation by SDS-PAGE, proteins were transferred onto nitrocellulose membranes (Schleicher & Schuell, Dassel, Germany) and stained with antibodies against Hsp72, Hsp73, Hsp90 (all from Enzo Life Science, Lörrach, Germany), AIF, lamin A, caspases 9 and 3, PARP (all from Santa Cruz, Heidelberg, Germany). An anti-α tubulin antibody (Sigma, Deisenhofen, Germany) was employed to assess equal loading. Secondary antibodies used were anti-rat (Enzo Life Science), anti-rabbit and anti-mouse (both from GE Healthcare, Little Chalfont, UK). […] The heat shock proteins HSP72 and HSP73 critically interact with HSP90 in order to mediate an essential chaperone function for a multitude of proteins including various signaling intermediates. According to an established HSP72/73-dependent client protein signature and its role for survival in MM, the proposed anti-HSP72/73 effect of trans-7b in the INA-6 multiple myeloma (MM) cell line model was evaluated. […] Lysates were cleared by centrifugation, measured by quantitative protein assay (Bio-Rad, München, Germany) and subjected to SDS gel electrophoresis. […]

HSP90 = experiment: Western blot analysis of HSP90 expression in INA-6 cells; type: cell-based, human; details: INA-6, 0.6 μM, with Z-VAD-FMK 50 μM
Protocol: as §1

caspases 9 and 3 = experiment: Apoptosis assay: cleavage and activation of caspases 9 and 3, PARP cleavage in INA-6 cells (Western blot); type: cell-based, human; details: INA-6, 0.6 μM, 24 hours
Protocol: (§2) Apoptosis Assays. Hsp70-dependent prevention of apoptosis was investigated by analyses of the apoptosis-inducing factors (AIF) and of the caspases 9 and 3 in INA-6 cells. INA-6 cells were treated with 0.6 μM of compound trans-7b for 8 hours prior to analyze nuclear translocation of AIF. Staining of the nuclear protein lamin A was used as a loading control. […] Analysis of cleavage of the bona fide caspase substrate PARP served as a control for caspase activation. Co-treatment with the pan-caspase inhibitor Z-VAD-FMK (50 μM) was employed as another specificity control.
In FIG. 2A Western blot analyses of caspases 9 and 3, and the caspase substrate PARP (upper panel), and viability analyses (lower panel) of INA-6 MM cells upon treatment with trans-7b for 24 hours are shown. […] Lysates were cleared by centrifugation, measured by quantitative protein assay (Bio-Rad, München, Germany) and subjected to SDS gel electrophoresis. […] INA-6 cells were washed in PBS, incubated for 15 minutes in 100 ml binding buffer (10 mM HEPES/NaOH, pH 7.4, 140 mM NaCl, 2.5 mM CaCl2) containing 2.5 mL annexin V-FITC mix and 1 mg/ml PI and analyzed by flow cytometry (FACSCalibur/CELLQuest; Becton Dickinson, Heidelberg, Germany). […] Raw data of three independent experiments have been calculated to establish means, standard deviation and dose-effect curves of trans-7b.

[1] = system: apoptosis-inducing factor (AIF); experiment: Apoptosis assay: nuclear translocation of AIF in INA-6 cells (Western blot); type: cell-based, human; details: INA-6, 0.6 μM, 8 hours, nuclear pellets
Protocol: as §2
Western Blot Analysis. Protein expression levels were determined with Western blotting procedures (M. Chatterjee, et al., Blood 2002, 100, 3311-3318). Following separation by SDS-PAGE, proteins were transferred onto nitrocellulose membranes (Schleicher & Schuell, Dassel, Germany) and stained with antibodies against Hsp72, Hsp73, Hsp90 (all from Enzo Life Science, Lörrach, Germany), AIF, lamin A, caspases 9 and 3, PARP (all from Santa Cruz, Heidelberg, Germany). […] According to an established HSP72/73-dependent client protein signature and its role for survival in MM, the proposed anti-HSP72/73 effect of trans-7b in the INA-6 multiple myeloma (MM) cell line model was evaluated. […] Lysates were cleared by centrifugation, measured by quantitative protein assay (Bio-Rad, München, Germany) and subjected to SDS gel electrophoresis. […]

T1 sequence (P0DMV8 whole entry): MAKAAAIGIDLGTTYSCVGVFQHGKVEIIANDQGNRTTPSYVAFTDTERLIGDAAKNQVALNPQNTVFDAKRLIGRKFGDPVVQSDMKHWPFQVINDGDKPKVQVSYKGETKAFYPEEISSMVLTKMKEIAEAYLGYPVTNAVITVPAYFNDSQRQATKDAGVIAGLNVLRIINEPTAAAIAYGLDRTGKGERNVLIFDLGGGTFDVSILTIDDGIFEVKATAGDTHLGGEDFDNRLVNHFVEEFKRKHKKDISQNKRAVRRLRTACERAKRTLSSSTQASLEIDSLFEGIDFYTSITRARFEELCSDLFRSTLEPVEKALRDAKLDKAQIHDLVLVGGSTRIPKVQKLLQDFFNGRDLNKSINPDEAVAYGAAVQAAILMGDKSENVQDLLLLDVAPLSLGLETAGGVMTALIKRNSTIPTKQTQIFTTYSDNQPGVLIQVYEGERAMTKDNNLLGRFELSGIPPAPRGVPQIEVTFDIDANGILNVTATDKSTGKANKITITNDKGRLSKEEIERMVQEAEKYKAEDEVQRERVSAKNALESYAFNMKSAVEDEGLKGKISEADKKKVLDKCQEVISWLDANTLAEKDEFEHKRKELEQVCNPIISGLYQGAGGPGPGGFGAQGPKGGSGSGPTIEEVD

COc1ccc(C2C(C(=O)Nc3cccc(C)n3)c3ccccc3C(=O)N2c2ccccc2)cc1 (stereo not drawn) [trans-7b, trans-3-(4-Methoxyphenyl)-N-(6-methylpyridin-2-yl)-1-oxo-2-phenyl-1,2,3,4-tetrahydroisoquinoline-4-carboxamide]
HSP72 constitutive expression level (HSP72): decreases; also recorded: reduced | HSP90 expression (HSP90): remains unchanged | caspase 9 and 3 cleavage/activation (PARP cleavage) (caspases 9 and 3): activation of the caspases 9 and 3; also recorded: sequential caspase 9 and 3 cleavage leading to their activation | nuclear translocation of activated AIF [1]: shifting from the cytosol to the nucleus
